From patent US20090142429A1, “SILICIBACTER SP. STRAIN USEFUL FOR GENETIC TRANSFORMATION OF MARINE ALGAE AND PRODUCTION OF ANTIBIOTIC AGENTS” (UNIVERSITY OF MARYLAND BIOTECHNOLOGY INSTITUTE, priority 2005, published 2009)
Several values for one entry are separate records, joined by “and”; a condition that tells them apart may be missing. Equal entries are not always repeated.

Columns and labels:
[1] = tested on: Silicibacter sp. strain TM1040; assay: Capillary assay: reduction in chemotaxis toward P. piscicida homogenates by externally supplied attractant; assay type: cell-based; conditions: for % Reduction in CFU per capillary compared to the control / No. of bacteria per capillary (CFU · 10^4), attractant added to external buffer: 200 μM attractant in external buffer; for No. of bacteria per capillary (CFU · 10^4), attractant added to external buffer: SD in parentheses; for mean number of bacteria in the untreated capillaries: untreated homogenate, attractant supplied externally in the buffer
Experimental: The capillary assay was also used to measure the reduction in chemotaxis through competition when a known attractant was supplied exogenously (i.e., outside the capillary). In this variation, the quantitative capillary method was used, but a known attractant was included in the CB used to suspend the washed cells. A capillary containing a mixture of potential chemoattractant molecules was then placed in the chamber and incubated as described earlier. At the completion of the assay, the percent reduction in chemotaxis was calculated using the following formula: % reduction=[1−(CFU ml^−1exogenous/CFU ml^−1control)]×(100).
Dinoflagellates and Rhodomonas sp. were grown to late exponential phase (ca. 10^5 to 10^6 cells per ml), and the cell density was measured using a Coulter Counter (model M/SZRII; Beckman Coulter). Dinoflagellates were harvested after starvation of the culture to remove Rhodomonas prey algae, which was confirmed by microscopy. The cell densities in P. piscicida and Rhodomonas cultures were normalized to 10^5 cells per ml, and each culture was then pelleted by centrifugation at 4,000×g and 4° C. for 10 min. The supernatant was removed, and the pellets were separately resuspended with either 1 ml of ice-cold distilled water or CB. The cells were homogenized by sonication (Sonic Dismembrator; Fisher), and cell disruption was assessed by microscopy. To examine the heat sensitivity of chemotaxis elicitors, an aliquot of each homogenate was heated to 80° C. for 15 min prior to the assay. All homogenates were then stored at −20° C. When required, the homogenates were thawed, held on ice, and used in the capillary assay as described.

[2] = tested on: Silicibacter sp. strain TM1040; assay: Quantitative capillary chemotaxis assay; assay type: cell-based; conditions: for response factor (mean): pure compounds, FIG. 12, capillaries filled with 2 μM or 200 μM attractant; for mean concentration of bacteria in methionine-filled capillaries: starved cells
Description: The cells were pelleted by centrifugation at 4,000×g in a tabletop centrifuge (Centra-CL2; International Equipment Company), the supernatant was discarded, and the pellet was resuspended in chemotaxis buffer (CB) (15 g of ASW, 6 g of Tris-HCl per liter [pH 7.6]) to the same OD. Five hundred microliters of washed cells was placed in one of the wells of the Palleroni chamber, followed by a 1-μl capillary (Microcaps; Drummond) filled with a putative attractant diluted in CB. This process was repeated for each of the four wells in the chamber. A capillary filled with CB only was included in each experiment as a negative control. Depending on the experiment, capillaries remained in the chambers for 0.5 to 2 h, after which time they were removed, and the contents of each capillary were serially diluted in CB. Final dilutions were then spread on HIASW agar plates and incubated for 16 h at 30° C. The concentration of TM1040 in each capillary was derived by counting the CFU on each plate and multiplying by the appropriate dilution factor. […]

[3] = tested on: Silicibacter sp. strain TM1040; assay: Chemotaxis plate screening assay (change in motile colony morphology); assay type: cell-based; conditions: for Response: change in motile colony morphology of TM1040 in response to attractants, compared to the control / chemotactic response of TM1040 in plate assay: BM glycerol motility agar; for Change in morphology with carbon source Alanine / Change in morphology with carbon source Glucose / Change in morphology with carbon source Glycerol / Change in morphology with carbon source Succinate: BM motility agar; for Change in morphology with carbon source Alanine: alanine as single carbon source; for Change in morphology with carbon source Glucose: glucose as single carbon source; for Change in morphology with carbon source Glycerol: glycerol as single carbon source; for Change in morphology with carbon source Succinate: succinate as single carbon source; on Change in morphology with carbon source Alanine: key: −: minus indicates no change compared to distilled water or no attractant controls; +: either one or two pluses indicates moderate to strong alteration in motile colony phenotype (respectively); ++: either one or two pluses indicates moderate to strong alteration in motile colony phenotype (respectively); on Change in morphology with carbon source Glucose: key: −: minus indicates no change compared to distilled water or no attractant controls; +: either one or two pluses indicates moderate to strong alteration in motile colony phenotype (respectively); ++: either one or two pluses indicates moderate to strong alteration in motile colony phenotype (respectively); on Change in morphology with carbon source Glycerol: key: −: minus indicates no change compared to distilled water or no attractant controls; +: either one or two pluses indicates moderate to strong alteration in motile colony phenotype (respectively); ++: either one or two pluses indicates moderate to strong alteration in motile colony phenotype (respectively); on Response: change in motile colony morphology of TM1040 in response to attractants, compared to the control: key: −: minus indicates no change compared to distilled water or no attractant controls; +: either one or two pluses indicates moderate to strong alteration in motile colony phenotype (respectively); ++: either one or two pluses indicates moderate to strong alteration in motile colony phenotype (respectively)
Experimental: Following 36 h of incubation, a putative attractant was placed approximately 5 cm from the site of inoculation (or 2.5 cm in front of the periphery of motile cells). Possible chemoattractant compounds were administered as either a sterile solid or concentrated stock solutions. The cells were further incubated for 16 h to allow for additional outward movement, at which time measurement of diameter, shape, and chemotaxis rings internal to the motile colony were made.
[…] Bacteria inoculated into the center of the agar consume nutrients and create a concentration gradient that increases outward from the point of inoculation. The bacteria sense the increasing gradient and swim outwards, seeking higher concentrations of nutrients, which is manifested as a symmetrical “motile” colony. If an attractant is placed at a short distance in front of the advancing motile colony, it forms a second gradient moving towards the oncoming cells that will affect the symmetry of the colony by reducing the net outward swimming of the bacteria.

[4] = Destruction of DMSP by heating (GC-FID); assay type: physicochemical
Experimental: The concentration of DMSP in 1 ml-samples of heated or boiled 200 μM DMSP and in heated and untreated P. piscicida homogenates was measured using gas chromatography with flame ionization detection, as previously described.
Destruction of 200 μM DMSP in CB was assessed after heating the samples to either 80 or 100° C. for 15 min. At both temperatures, negligible (<2%) loss of DMSP was observed.
An alternative explanation for why heat reduced the chemoattractant quality of the homogenates is that heat acts indirectly through an intermediate to inactivate DMSP. This hypothesis predicts that the concentration of DMSP decreases when a homogenate is heated. The DMSP concentration in untreated and heated homogenates was measured. In untreated P. piscicida homogenates the mean concentration of DMSP was 8.21±1.2 μM. After the homogenate was heated, the concentration of DMSP fell below the level of detectability (<1 μM).

[5] = heated (80° C. for 15 min) P. piscicida homogenate
[6] = untreated P. piscicida homogenate

CSCC[C@H](N)C(=O)O [methionine]
% Reduction in CFU per capillary compared to the control [1, 5]: 48%
No. of bacteria per capillary (CFU · 10^4), attractant added to external buffer [1, 5]: 1.80 (±0.11) CFU · 10^4
% Reduction in CFU per capillary compared to the control ([1]; heated (80° C. for 15 min) P. piscicida homogenate, listed as Methionine): 48.72%
% Reduction in CFU per capillary compared to the control [1, 6]: 58%
No. of bacteria per capillary (CFU · 10^4), attractant added to external buffer [1, 6]: 3.03 (±0.32) CFU · 10^4
% Reduction in CFU per capillary compared to the control ([1]; untreated P. piscicida homogenate, listed as Methionine): 58.15%
mean number of bacteria in the untreated capillaries [1]: 3.03×10^4 CFU per ml
response factor (mean) [2]: 9.8
mean concentration of bacteria in methionine-filled capillaries ([2]; 0.5 h, 200 μM): 5.3×10^7 CFU per ml
mean concentration of bacteria in methionine-filled capillaries ([2]; 1 h, 200 μM): 1.8×10^8 CFU per ml
mean concentration of bacteria in methionine-filled capillaries ([2]; 1.5 h, 200 μM): 2.4×10^8 CFU per ml
mean concentration of bacteria in methionine-filled capillaries ([2]; 2 h, 200 μM): 2.4×10^8 CFU per ml
maximum mean concentration of bacteria in methionine-filled capillaries ([2]; without starvation, peak at 1.5 h, 200 μM): 2.1×10^8 CFU per ml
Response: change in motile colony morphology of TM1040 in response to attractants, compared to the control [3]: ++
chemotactic response of TM1040 in plate assay [3]: significant effects on the periphery of the motile colony

CC(C)[C@H](N)C(=O)O [valine]
% Reduction in CFU per capillary compared to the control [1, 5]: 74%
No. of bacteria per capillary (CFU · 10^4), attractant added to external buffer [1, 5]: 0.91 (±0.24) CFU · 10^4
% Reduction in CFU per capillary compared to the control ([1]; heated (80° C. for 15 min) P. piscicida homogenate, listed as Valine): 74.07%
% Reduction in CFU per capillary compared to the control [1, 6]: 78%
No. of bacteria per capillary (CFU · 10^4), attractant added to external buffer [1, 6]: 1.53 (±0.15) CFU · 10^4
% Reduction in CFU per capillary compared to the control ([1]; untreated P. piscicida homogenate, listed as Valine): 78.87%
mean number of bacteria in the untreated capillaries [1]: 1.53×10^4 CFU per ml
response factor (mean) [2]: 6.1
Response: change in motile colony morphology of TM1040 in response to attractants, compared to the control [3]: ++
chemotactic response of TM1040 in plate assay [3]: significant effects on the periphery of the motile colony
Change in morphology with carbon source Alanine [3]: +
Change in morphology with carbon source Glucose [3]: −
Change in morphology with carbon source Glycerol [3]: ++
Change in morphology with carbon source Succinate [3]: +

C[S+](C)CCC(=O)[O-] [DMSP, Dimethylsulfoniopropionate]
% Reduction in CFU per capillary compared to the control [1, 5]: 11% and 11.68%
No. of bacteria per capillary (CFU · 10^4), attractant added to external buffer [1, 5]: 3.10 (±0.16) CFU · 10^4
% Reduction in CFU per capillary compared to the control [1, 6]: 54% and 54.01%
No. of bacteria per capillary (CFU · 10^4), attractant added to external buffer [1, 6]: 3.33 (±0.15) CFU · 10^4
mean number of bacteria in the untreated capillaries [1]: 3.33×10^4 CFU per ml
response factor (mean) [2]: 8.2
loss of DMSP ([4]; 200 μM DMSP in CB heated to either 80 or 100° C. for 15 min): < 2%
concentration of DMSP in P. piscicida homogenates ([4]; after the homogenate was heated, level of detectability): < 1 µM
mean concentration of DMSP in P. piscicida homogenates ([4]; untreated homogenate): 8.21 ± 1.2 µM
Response: change in motile colony morphology of TM1040 in response to attractants, compared to the control [3]: ++
chemotactic response of TM1040 in plate assay [3]: marked deformation in the periphery of the motile colony
Change in morphology with carbon source Alanine [3]: +
Change in morphology with carbon source Glucose [3]: −
Change in morphology with carbon source Glycerol [3]: ++
Change in morphology with carbon source Succinate [3]: +
